Measured values taken from US20100004166A1, “Endothelin and Endothelin Receptor Agonists in the Treatment of Metabolic Diseases” (priority 2007, published 2010).
“Also recorded” adds a separate entry of the source. Where a SMILES comes first, the peptide text is derived from it. Bridges are numbered along the chain shown (N, C = ends). Where no end group is shown, it is not given here.

Tested on: not listed separately
Assay: Reduction of food intake in fasted mice after i.p. injection of peptide
Type: in vivo, NIH/Swiss mice
Settings: fasted mice, i.p.
Text: In yet another embodiment, the ET receptor agonist is adenoregulin. See, e.g., Donly et al., Proc. Natl. Acad. Sci. USA 89:10960-963 (1992); Amiche et al., Biochem. Biophys. Res. Comm. 191:983-90 (1993). Known sequences for adenoregulin include Genbank sequences X70278 and X72387. Originally isolated from the skin of the frog Phyllomedusa bicolor, adenoregulin belongs to the family of dermaseptins, a family of antimicrobial peptides. See, e.g., Amiche et al., J. Biol. Chem. 269:17847-52 (1994); Zhou et al., Biotechnol. Lett. 27:725-30 (2005).
Materials & Methods: NIH/Swiss mice were fasted approximately 17 hours prior to initiation of the experiment. Peptides were injected intraperitoneally (i.p.) at time zero using doses as indicated. All mice received an intraperitoneal injection (200 μl) of either vehicle or compounds at doses indicated and were immediately presented with a pre-weighed food pellet. The food pellet was weighed at 30-minute, 1-hr, and 2-hr intervals after presentation to determine the amount of food eaten. Each point reflects n=4 for mice receiving an endothelin or endothelin agonist or n=3 for mice receiving vehicle.
Food intake values reflect, at each time point, effect of test sample on food intake is expressed as % change relative to vehicle using the formula provided below.
% basal=−100*[1−(food intake of treatment group/food intake of vehicle group)].
(§1) Significant test sample effects were identified by ANOVA (p<0.05). Where a significant difference exists, test means were compared to the control mean using Dunnett's test. One-way ANOVA with Dunnett's post test was performed using GraphPad Prism® version 3.01 for Windows, GraphPad Software, San Diego, Calif. USA.

Molecule	observable negative effects
CC[C@H](C)[C@H](NC(=O)[C@H](CC(=O)O)NC(=O)[C@H](CC(C)C)NC(=O)[C@H](Cc1c[nH]cn1)NC(=O)[C@@H]1CSSC[C@H](N)C(=O)N[C@@H]([C@@H](C)O)C(=O)N[C@H]2CSSC[C@H](NC(=O)[C@H](CCC(=O)O)NC(=O)[C@H](CCCCN)NC(=O)[C@H](CC(=O)O)NC(=O)[C@H](CCCCN)NC(=O)[C@H](Cc3ccc(O)cc3)NC(=O)[C@H]([C@@H](C)O)NC(=O)[C@H](Cc3ccccc3)NC2=O)C(=O)N[C@@H](C(C)C)C(=O)N[C@@H](Cc2ccc(O)cc2)C(=O)N[C@@H](Cc2ccc(O)cc2)C(=O)N1)C(=O)N[C@H](C(=O)N[C@@H](Cc1c[nH]c2ccccc12)C(=O)O)[C@@H](C)CC [ET-3, reference compound]	without observable negative effects
CC[C@H](C)[C@H](NC(=O)[C@H](CC(=O)O)NC(=O)[C@H](CC(C)C)NC(=O)[C@H](Cc1cnc[nH]1)NC(=O)[C@@H]1CSSC[C@H](N)C(=O)N[C@@H](CO)C(=O)N[C@H]2CSSC[C@H](NC(=O)[C@H](CCC(=O)O)NC(=O)[C@H](CCCCN)NC(=O)[C@H](CC(=O)O)NC(=O)[C@H](CCSC)NC(=O)[C@H](CC(C)C)NC(=O)[C@H](CO)NC(=O)[C@H](CO)NC2=O)C(=O)N[C@@H](C(C)C)C(=O)N[C@@H](Cc2ccc(O)cc2)C(=O)N[C@@H](Cc2ccccc2)C(=O)N1)C(=O)N[C@H](C(=O)N[C@@H](Cc1c[nH]c2ccccc12)C(=O)O)[C@@H](C)CC [ET-1, reference compound]	without observable negative effects
CC[C@H](C)[C@H](NC(=O)[C@H](CC(=O)O)NC(=O)[C@H](CC(C)C)NC(=O)[C@H](Cc1cnc[nH]1)NC(=O)[C@@H]1CSSC[C@H](N)C(=O)N[C@@H](CO)C(=O)N[C@H]2CSSC[C@H](NC(=O)[C@H](CCC(=O)O)NC(=O)[C@H](CCCCN)NC(=O)[C@H](CC(=O)O)NC(=O)[C@H](CC(C)C)NC(=O)[C@H](Cc3c[nH]c4ccccc34)NC(=O)[C@H](CO)NC(=O)[C@H](CO)NC2=O)C(=O)N[C@@H](C(C)C)C(=O)N[C@@H](Cc2ccc(O)cc2)C(=O)N[C@@H](Cc2ccccc2)C(=O)N1)C(=O)N[C@H](C(=O)N[C@@H](Cc1c[nH]c2ccccc12)C(=O)O)[C@@H](C)CC [ET-2, reference compound] (H-CSCSSWLDKECVYFCHLDIIW-OH; disulfide 1-15, 3-11)	without observable negative effects

Same assay, conditions: fasted mice, i.p., 30 minutes

Molecule	food intake at 30 minutes
N-Succinyl-[Glu^9, Ala^11,15]-Endothelin 1 fragment 8-21 [IRL1620, reference compound]	reduced food intake

Same assay, conditions: fasted mice, i.p., 60 minutes

Molecule	food intake at 60 minutes
N-Succinyl-[Glu^9, Ala^11,15]-Endothelin 1 fragment 8-21 [IRL1620, reference compound]	reduced food intake

Same assay, conditions: fasted mice, i.p., 120 minutes

Molecule	food intake at 120 minutes
N-Succinyl-[Glu^9, Ala^11,15]-Endothelin 1 fragment 8-21 [IRL1620, reference compound]	no effect

Same assay, conditions: fasted mice, peripheral (i.p.) administration, all time points examined (30, 60, 120 min)

Molecule	reduction in food intake
c(CTCNDMTDEECLNFCHQDVIW)-OH [Sarafotoxin S6c, reference compound]	dose-dependent reduction in food intake

Same assay, conditions: food intake (FI) at 120 min; dose not given

Molecule	% Inhibition of FI at 120 mi
39 (GLWSKIKEVGKEAAKAAAKAAGKAALGAVSEAY-NH2) [compound 39]	61.0%
54 (GAWSKIKEVGKEAAKAAAKAAGKAALGAVSEAV-NH2) [compound 54]	37.3%
60 (ALWKTLLKKVGKVAGKAVLNAVTNMANQNEQ; not fully specified (C-terminus); printed as ALWKTLLKKVGKVAGKAVLNAVTNMANQNEQ-OH) [compound 60]	53.0%
52 (ALWSKIKEVGKEAAKAAAKAAGKAALGAVSEAV-NH2) [compound 52]	32.3%
41 (GLWSKIKEVGKEAAKAAAKAAGKAALGAVSEAA-NH2) [compound 41]	54.0%
51 (GLASKIKEVGKEAAKAAAKAAGKAALGAVSEAV-NH2) [compound 51]	25.8%
33 (GLWSKIKEVGKEAAKAAAKAAGKAALGAVSEAV-NH2) [compound 33]	77.6%
35 (GLWSKIKEVGKEAAKAAAKAAGKAALGAVSEA-NH2) [compound 35]	28.9%
50 (GLWSAIKEVGKEAAKAAAKAAGKAALGAVSEAV-NH2) [compound 50]	22.3%
38 (GLWSKIKEVGKEAAKAAAKAAGKAALGAVSEAI-NH2) [compound 38]	78.0%
57 (GLWSKIKEVGKEAAKAAAKAAGKAALGAVAEAV-NH2) [compound 57]	74.8%
49 (GLWSKIKEVGKEAAKAAAKAAGKAALGAVSEA-NH2) [compound 49]	13.5%
62 (ALWKTLLKKVLKA-NH2) [compound 62]	28.2%
58 (GLWSKIKEVGKEAAKAAAKAAGKAALGAVSAAV-NH2) [compound 58]	78.9%
46 (GLWSKIKEVGKEAAKAAAKAAGKAALGAVSEA-NH2) [compound 46]	17.0%
43 (GLWSKIKEVGKEAAKAAAKAAGKAALGAVSEAP-NH2) [compound 43]	37.0%
42 (GLWSKIKEVGKEAAKAAAKAAGKAALGAVSEAK-NH2) [compound 42]	48.0%
47 (GLWSKIKEVGKEAAKAAAKAAGKAALGAVSEAVGEQ-OH) [compound 47]	50.0%
45 (GLWSKIKEVGKEAAKAAAKAAGKAALGAVSEAH-NH2) [compound 45]	23.0%
59 (ALWKTMLKKLGTMALHAGKAALGAAADTISQGTQ-OH) [compound 59]	58.0%
64 (GMWGSLLKGVATVVKHVLPHALSSQQS-OH) [compound 64]	22.0%
56 (GLWAKIKEVGKEAAKAAAKAAGKAALGAVSEAV-NH2) [compound 56]	71.7%
44 (GLWSKIKEVGKEAAKAAAKAAGKAALGAVSEAR-NH2) [compound 44]	34.0%
55 (GLWSKIKEVGKEAAKAAAKAAGKAALGAVSEAA-NH2) [compound 55]	54.0%
63 (GMWSKIKNAGKAAAKASKKAAGKAALGAVSEALGEQ-OH) [compound 63]	50.0%
61 (ALWMTLLKKVLKAAAKALNAVLVGANA-OH) [compound 61]	35.0%
53 (GLWSKIKEVGKEAAKAAAKAAGKAALGAASEAV-NH2) [compound 53]	33.6%
40 (GLWSKIKEVGKEAAKAAAKAAGKAALGAVSEAW-NH2) [compound 40]	61.0%
37 (GLWSKIKEVGKEAAKAAAKAAGKAALGAVSEAL-NH2) [compound 37]	79.0%
36 (GLWSKIKEVGKEAAKAAAKAAGKAALGAVSEAF-NH2) [compound 36]	92.0%

Same assay, conditions: rodents; doses estimated to be less than those exerting antibiotic effects

Molecule	food intake
GLWSKIKEVGKEAAKAAAKAAGKAALGAVSEAV-NH2 [SEQ ID NO 33]	inhibited food intake

Tested on: not listed separately
Assay: Body weight and body fat in diet induced obese (DIO) mice, continuous s.c. osmotic pump infusion
Type: in vivo
Settings: DIO mice on high fat diet, 300 nmol/kg/d, infused continuously 2-4 weeks (28 days); listed as adenoregulin
Method: Materials & Methods: Diet induced obese (DIO) mice were employed. Obesity was induced by feeding a pelleted high-fat diet (58% of calories, #D12331, Research Diets, New Brunswick, N.J.) starting at 4 wk of age (20) for 6 wk (4 wk for the long-term study) prior to treatment. The mice then remained on this diet in powdered form throughout the treatment period unless otherwise noted. All animals were housed under a 12 hr:12 hr light-dark cycle at 21-23° C., and allowed ad libitum access to food pre- and post-treatment. […] (20 nmol/kg/d), or adenoregulin [SEQ ID NO: 33] (300 nmol/kg/d) were administered to DIO mice by Alzet® s.c. osmotic pumps. Mice were fed pelleted high-fat diet, and body weights and food intake were recorded weekly.
Body weight (BWt), at each time point, reflects the effect of test sample on BWt when expressed as % change relative to vehicle treated. For a treatment group:
% BWt loss=100*[(mean BWt change vehicle treated)−(mean BWt change treated)/mean BWt at day 0]
[…]
as §1, with “Diego” for “Diego,”, “Calif.” for “Calif. USA.”

Molecule	body weight
GLWSKIKEVGKEAAKAAAKAAGKAALGAVSEAV-NH2 [SEQ ID NO 33]	sustained weight reducing effect; also recorded: reduction of body weight

Same assay, conditions: DIO mice on high fat diet, 300 nmol/kg/d, vs vehicle on high-fat or low-fat diet; listed as adenoregulin

Molecule	body fat
GLWSKIKEVGKEAAKAAAKAAGKAALGAVSEAV-NH2 [SEQ ID NO 33]	reduction in body fat; also recorded: reduction of body fat

Same assay, conditions: DIO mice, 20 nmol/kg/d continuously infused

Molecule	sickness behavior
CC[C@H](C)[C@H](NC(=O)[C@H](CC(=O)O)NC(=O)[C@H](CC(C)C)NC(=O)[C@H](Cc1cnc[nH]1)NC(=O)[C@@H]1CSSC[C@H](N)C(=O)N[C@@H](CO)C(=O)N[C@H]2CSSC[C@H](NC(=O)[C@H](CCC(=O)O)NC(=O)[C@H](CCCCN)NC(=O)[C@H](CC(=O)O)NC(=O)[C@H](CCSC)NC(=O)[C@H](CC(C)C)NC(=O)[C@H](CO)NC(=O)[C@H](CO)NC2=O)C(=O)N[C@@H](C(C)C)C(=O)N[C@@H](Cc2ccc(O)cc2)C(=O)N[C@@H](Cc2ccccc2)C(=O)N1)C(=O)N[C@H](C(=O)N[C@@H](Cc1c[nH]c2ccccc12)C(=O)O)[C@@H](C)CC [ET-1, reference compound]	without observable sickness behavior

Molecular target: T1, ETA (Homo sapiens, UniProt P25101)
T1 sequence (P25101 21-427): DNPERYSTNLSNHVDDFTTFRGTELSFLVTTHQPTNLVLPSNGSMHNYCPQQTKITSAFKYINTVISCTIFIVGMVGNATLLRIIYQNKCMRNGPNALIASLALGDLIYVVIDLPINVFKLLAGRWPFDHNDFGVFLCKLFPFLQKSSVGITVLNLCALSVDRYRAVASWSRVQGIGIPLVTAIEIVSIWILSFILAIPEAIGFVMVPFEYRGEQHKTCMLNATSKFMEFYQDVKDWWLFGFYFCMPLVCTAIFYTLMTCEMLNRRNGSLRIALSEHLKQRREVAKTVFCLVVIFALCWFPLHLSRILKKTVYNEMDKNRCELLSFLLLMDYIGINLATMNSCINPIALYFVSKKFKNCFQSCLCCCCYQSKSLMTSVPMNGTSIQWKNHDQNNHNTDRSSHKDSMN
Assay: not given
Settings: read-out: affinity for ETA; cited from earlier work

Molecule	Kd
CC[C@H](C)[C@H](NC(=O)[C@H](CC(=O)O)NC(=O)[C@H](CC(C)C)NC(=O)[C@H](Cc1c[nH]cn1)NC(=O)[C@@H]1CSSC[C@H](N)C(=O)N[C@@H]([C@@H](C)O)C(=O)N[C@H]2CSSC[C@H](NC(=O)[C@H](CCC(=O)O)NC(=O)[C@H](CCCCN)NC(=O)[C@H](CC(=O)O)NC(=O)[C@H](CCCCN)NC(=O)[C@H](Cc3ccc(O)cc3)NC(=O)[C@H]([C@@H](C)O)NC(=O)[C@H](Cc3ccccc3)NC2=O)C(=O)N[C@@H](C(C)C)C(=O)N[C@@H](Cc2ccc(O)cc2)C(=O)N[C@@H](Cc2ccc(O)cc2)C(=O)N1)C(=O)N[C@H](C(=O)N[C@@H](Cc1c[nH]c2ccccc12)C(=O)O)[C@@H](C)CC [ET-3, reference compound]	6.5 nM
